In patent US10344335B2, “Mutant calreticulin for the diagnosis of myeloid malignancies” (CEMM—FORSCHUNGSZENTRUM FUER MOLEKULARE MEDIZIN GMBH, priority 2013, dated 2019):

Tested on: Ba/F3 cells expressing empty vector (GFP), CALR wild type or CALR del52
Assay: Sensitivity of Ba/F3 cells to the inhibitor SAR302503 (CellTiter-Glo cell viability)
Format: cell-based, murine
Settings: Ba/F3 cells expressing CALR wild type vs CALR del52; 48 hours; 10 ng/ml interleukin-3; dilution series, highest concentration 40 μM; listed as JAK2 kinase inhibitor
Protocol: Ba/F3 cells expressing the empty vector (GFP), CALR wild type (CALR wt-GFP) or CALR mutant (CALR del52-GFP) were analyzed by defining cell viability after 48 hours in presence of decreasing SAR302503. For relative viability, relative luminescence units were normalized to the DMSO control. Error bars represent standard error of the mean.
To define the sensitivity to the inhibitor SAR302503 (Sanofi), Ba/F3 cells were plated in 96-well plates at 25000 cells per well in triplicates on a dilution series of SAR302503 (highest concentration 40 μM) and in presence of 10 ng/ml interleukin-3. After 48 hours cell viability was determined by the CellTiter-Glo® Luminescent Cell Viability Assay (Promega).

Cc1cnc(Nc2ccc(OCCN3CCCC3)cc2)nc1Nc1cccc(S(=O)(=O)NC(C)(C)C)c1 [SAR302503]
sensitivity of cells to SAR302503 (cell viability): suppressed equally
